In ChEMBL document CHEMBL5523748, “Targeting Myeloperoxidase Ameliorates Gouty Arthritis: A Virtual Screening Success Story” (J Med Chem, 2024):
Activity calls are given as the source filed them. The calls are words filed in the database; no cut-off is given here.

What was measured:
[1] = Antioxidant activity assessed as taurine chloramine scavenging activity incubated for 15 mins; assay type: functional
[2] = molecular target: T1, Myeloperoxidase (Homo sapiens) (UniProt P05164); experiment: Inhibition of human leukocyte MPO chlorinating activity using hydrogen peroxide as substrate at 20 uM preincubated for 15 mins followed by substrate addition and measured after 8 mins relative to control; settings: time 23.0 min
T1 sequence (whole entry): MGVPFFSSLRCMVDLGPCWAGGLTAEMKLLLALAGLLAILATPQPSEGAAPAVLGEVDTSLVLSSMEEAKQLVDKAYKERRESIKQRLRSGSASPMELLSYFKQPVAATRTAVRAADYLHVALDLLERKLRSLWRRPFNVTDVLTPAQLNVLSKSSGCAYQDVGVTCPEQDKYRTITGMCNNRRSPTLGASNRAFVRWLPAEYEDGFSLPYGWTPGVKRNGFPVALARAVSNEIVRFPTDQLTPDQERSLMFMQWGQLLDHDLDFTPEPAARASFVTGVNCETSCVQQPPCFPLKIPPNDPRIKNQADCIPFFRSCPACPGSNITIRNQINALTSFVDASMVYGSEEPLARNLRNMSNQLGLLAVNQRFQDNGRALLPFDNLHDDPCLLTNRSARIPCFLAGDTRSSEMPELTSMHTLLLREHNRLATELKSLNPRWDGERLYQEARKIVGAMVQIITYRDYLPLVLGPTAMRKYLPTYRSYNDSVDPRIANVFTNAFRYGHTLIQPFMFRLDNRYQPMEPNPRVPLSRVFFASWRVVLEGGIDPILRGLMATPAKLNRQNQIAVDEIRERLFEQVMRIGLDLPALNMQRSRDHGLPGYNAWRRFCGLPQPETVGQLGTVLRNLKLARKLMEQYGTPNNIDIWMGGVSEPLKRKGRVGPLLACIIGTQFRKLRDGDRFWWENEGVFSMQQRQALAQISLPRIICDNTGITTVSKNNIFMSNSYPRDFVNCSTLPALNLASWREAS

dHL-60 = experiment: Inhibition of HOCl production in human dHL-60 cells at 20 uM incubated for 1 hrs in presence of PMA; assay type: functional, cell-based
Neutrophil [3] = experiment: Inhibition of MSU-induced NETosis in human neutrophil assessed as reduction in nuclear expansion at 20 uM incubated for 90 mins by sytox green staining based fluorescence microscopic analysis; assay type: functional, cell-based
Neutrophil [4] = experiment: Inhibition of HOCl production in human neutrophil at 20 uM incubated for 1 hrs in presence of PMA; assay type: functional, cell-based
Neutrophil [5] = experiment: Inhibition of MSU-induced NETosis in human neutrophil assessed as reduction in release of large DNA scaffolds at 20 uM incubated for 90 mins by sytox green staining based fluorescence microscopic analysis; assay type: functional, cell-based
Mus musculus [6] = experiment: Reduction in total peroxidase activity in MSU-induced gouty arthritic male C57BL/6 mouse model at 30 mg/kg, ip preadministered with compound for 30 mins followed by MSU addition and measured after 6 hrs; assay type: functional, organism-based; settings: time 6.5 hrs
Mus musculus [7] = experiment: Downregulation of IL-1beta level in MSU-induced gouty arthritic male C57BL/6 mouse model at 30 mg/kg, ip preadministered with compound for 30 mins followed by MSU addition and measured after 6 hrs by ELISA; assay type: functional, organism-based; settings: time 6.5 hrs
Mus musculus [8] = experiment: Anti-inflammatory activity against MSU-induced gouty arthritis in male C57BL/6 mouse model assessed as prevention of paw edema at 3 to 30 mg/kg, ip preadministered with compound for 30 mins followed by MSU administration and measured upto 4 hrs by plethysmometer; assay type: functional, organism-based; settings: dose 3-30 mg/kg
Mus musculus [9] = experiment: Anti-inflammatory activity against MSU-induced gouty arthritis in male C57BL/6 mouse model assessed as inhibition of paw edema at 34 mg/kg, po preadministered with compound for 1 hrs followed by MSU administration and measured for 6 hrs by plethysmometer; assay type: functional, organism-based; settings: time 7.0 hrs
Mus musculus [10] = experiment: Downregulation of IL-6 level in MSU-induced gouty arthritic male C57BL/6 mouse model at 30 mg/kg, ip preadministered with compound for 30 mins followed by MSU addition and measured after 6 hrs by ELISA; assay type: functional, organism-based; settings: time 6.5 hrs
Mus musculus [11] = experiment: Anti-inflammatory activity against MSU-induced gouty arthritis in male C57BL/6 mouse model assessed as prevention of paw edema at 30 mg/kg, ip preadministered with compound for 30 mins followed by MSU administration and measured upto 4 hrs by plethysmometer; assay type: functional, organism-based
[12] = molecular target: T1, Myeloperoxidase (Homo sapiens); experiment: Inhibition of human leukocyte MPO peroxidase activity using hydrogen peroxide as substrate by fluorescence based analysis
[13] = Reactivity of the compound in phosphate buffer at pH 7.4 assessed as compound oxidation by measuring decrease in fluorescence spectra in presence of MPO, H2O2 and tyrosine by fluorescence microplate reader; assay type: physicochemical
TERT-RPE1 [14] = experiment: Cytotoxicity against human hTERT-RPE1 cells assessed as reduction in cell viability at 2 to 50 uM measured after 72 hrs by XTT assay; assay type: toxicity, cell-based; settings: tert-rpe1, 72 h, dose 2-50 µM
Mus musculus [15] = experiment: Anti-inflammatory activity against MSU-induced gouty arthritis in male C57BL/6 mouse model assessed as prevention of paw edema at 3 to 30 mg/kg, ip preadministered with compound for 30 mins followed by MSU administration and measured for 6 hrs by plethysmometer; assay type: functional, organism-based; settings: dose 3-30 mg/kg, time 6.5 hrs
[16] = Reactivity of the compound in phosphate buffer at pH 7.4 assessed as compound oxidation by measuring decrease in fluorescence spectra in presence of H2O2 and chloride by fluorescence microplate reader; assay type: physicochemical
[17] = Reactivity of the compound in phosphate buffer at pH 7.4 assessed as compound oxidation by measuring decrease in fluorescence spectra in presence of MPO by fluorescence microplate reader; assay type: physicochemical
[18] = molecular target: Poly [ADP-ribose] polymerase 1 (Homo sapiens) (UniProt P09874); experiment: Inhibition of PARP1-induced ADP-ribosylation in human hTERT-RPE1 cells at 1 to 50 uM preincubated with compound for 1 hrs followed by H2O2 addition and measured after 10 mins; assay type: cell-based; settings: dose 1-50 µM, time 70.0 min
Poly [ADP-ribose] polymerase 1 (Homo sapiens), sequence (P09874 whole entry): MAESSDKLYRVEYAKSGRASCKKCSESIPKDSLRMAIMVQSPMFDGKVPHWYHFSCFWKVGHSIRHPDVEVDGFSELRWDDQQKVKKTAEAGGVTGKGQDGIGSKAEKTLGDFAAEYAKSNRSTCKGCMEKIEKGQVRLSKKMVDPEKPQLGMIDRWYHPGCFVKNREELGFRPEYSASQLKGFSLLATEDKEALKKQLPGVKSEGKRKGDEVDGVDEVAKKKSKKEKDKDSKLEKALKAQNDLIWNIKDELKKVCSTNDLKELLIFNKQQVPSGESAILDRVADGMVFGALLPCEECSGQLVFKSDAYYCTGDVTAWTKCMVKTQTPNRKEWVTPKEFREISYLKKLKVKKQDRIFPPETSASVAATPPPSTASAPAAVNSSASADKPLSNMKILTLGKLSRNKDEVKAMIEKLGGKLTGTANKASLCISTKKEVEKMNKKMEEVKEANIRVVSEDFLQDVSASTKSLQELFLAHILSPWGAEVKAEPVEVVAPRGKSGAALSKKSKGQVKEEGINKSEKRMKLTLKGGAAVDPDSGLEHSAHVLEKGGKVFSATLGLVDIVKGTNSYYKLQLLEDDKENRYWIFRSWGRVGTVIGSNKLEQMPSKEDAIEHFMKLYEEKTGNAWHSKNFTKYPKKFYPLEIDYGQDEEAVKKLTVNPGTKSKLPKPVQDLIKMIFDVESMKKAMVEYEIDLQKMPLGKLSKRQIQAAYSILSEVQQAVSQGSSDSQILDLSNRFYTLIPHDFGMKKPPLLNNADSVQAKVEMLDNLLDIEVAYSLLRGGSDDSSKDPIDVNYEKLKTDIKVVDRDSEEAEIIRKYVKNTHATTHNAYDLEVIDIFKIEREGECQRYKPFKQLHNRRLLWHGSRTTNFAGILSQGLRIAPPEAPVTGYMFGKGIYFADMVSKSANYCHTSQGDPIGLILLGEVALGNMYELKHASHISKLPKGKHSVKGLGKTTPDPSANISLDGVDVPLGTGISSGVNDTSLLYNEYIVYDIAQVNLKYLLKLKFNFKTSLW

[19] = molecular target: T1, Myeloperoxidase (Homo sapiens); experiment: Reversible inhibition of human leukocyte MPO using hydrogen peroxide as substrate assessed as restoration of MPO peroxidase activity at 20 uM incubated for 30 mins and measured after dilution using acetate buffer in presence of TMB
[20] = Reactivity of the compound in phosphate buffer at pH 7.4 assessed as compound oxidation by measuring decrease in fluorescence spectra in presence of H2O2 by fluorescence microplate reader; assay type: physicochemical
[21] = Reactivity of the compound in phosphate buffer at pH 7.4 assessed as compound oxidation by measuring decrease in fluorescence spectra in presence of MPO and chloride by fluorescence microplate reader; assay type: physicochemical
[22] = Reactivity with Hypochlorous acid (HOCl) in phosphate buffer at pH 7.4 assessed as fluorescence decay at 20 uM measured within 1 sec by stopped-flow spectrophotometric analysis; assay type: physicochemical; settings: pH 7.4, 1 s
Mus musculus [23] = experiment: Anti-inflammatory activity against MSU-induced gouty arthritis in male C57BL/6 mouse model assessed as prevention of paw edema at 3 to 30 mg/kg, ip preadministered with compound for 30 mins followed by MSU administration and measured for 1 to 4 hrs by plethysmometer; assay type: functional, organism-based; settings: dose 3-30 mg/kg, time lower 1.5 hrs, time upper […]
Mus musculus [24] = experiment: Anti-inflammatory activity against MSU-induced gouty arthritis in male C57BL/6 mouse model assessed as prevention of paw edema at 0.3 mg/kg, ip preadministered with compound for 30 mins followed by MSU administration and measured for 4 hrs by plethysmometer; assay type: functional, organism-based
TERT-RPE1 [25] = experiment: Cytotoxicity against human hTERT-RPE1 cells assessed as reduction in cell viability at 50 uM measured after 72 hrs by XTT assay; assay type: toxicity, cell-based; settings: tert-rpe1, 72 h

For `CCCOc1ccc(C2C(C#N)=C(N)SC(N)=C2C#N)cc1OC`, the Activity [1] was “Active”.

In the case of `CCOC(=O)C(Cc1ccc(O)cc1)NC1=CC(=O)C(=O)c2ccccc21` (centres undefined), the inhibition [2] is reported as “inactive”.

In the case of `CCCc1cc(=O)[nH]c(=S)[nH]1`, the inhibition (dHL-60) is reported as “Active”, the inhibition (Neutrophil [3]) is reported as “Active” and the inhibition (Neutrophil [4]) is reported as “Active”. For the same compound, the inhibition (Neutrophil [5]) was “Active”.

With `CCc1c(O)[nH]c2nc3ccccc3n2c1=O` the Activity (Mus musculus [6]) was “inactive”, the Activity (Mus musculus [7]) was “inactive” and the Activity (Mus musculus [8]) was “Active”. The Activity (Mus musculus [9]) was “inactive” and the Activity (Mus musculus [10]) was “inactive”.

With `COc1cc(/C=N/NC(=O)c2ccoc2C)ccc1OCCN1CCCCC1` the inhibition [2] was “inactive”.

With `Cc1cccc(Nc2ccccc2C(=O)O)c1C` the Activity (Mus musculus [6]) was “inactive”, the Activity (Mus musculus [7]) was “inactive” and the Activity (Mus musculus [10]) was “inactive”. The Activity (Mus musculus [11]) was “Active”.

With `CCCNc1ncnc2cc(-c3ccc(OC)cc3)sc12` the inhibition [12] was “inactive” and the inhibition [2] was “inactive”.

With `Nc1cc2c3c(cccc3c1)C(=O)N(N)C2=O` the inhibition (dHL-60) was “Active”, the inhibition (Neutrophil [3]) was “Active” and the Drug metabolism [13] was “Metabolite_Notdetected”. The Activity [1] was “inactive”, the Activity (TERT-RPE1 [14]) was “Non-Toxic” and the inhibition (Neutrophil [4]) was “Active”. The inhibition (Neutrophil [5]) was “Active”, the Activity (Mus musculus [15]) was “Active” and the Drug metabolism [16] was “Metabolite_Notdetected”. The Drug metabolism [17] was “Metabolite_Notdetected”, the inhibition [18] was “inactive” and the Activity (Mus musculus [10]) was “inactive”. The inhibition [19] was “Active”, the Drug metabolism [20] was “Metabolite_Notdetected” and the Drug metabolism [21] was “Metabolite_Notdetected”.

With `CN(C)CCc1c(C#N)c(=O)ncn1Cc1ccccc1` the inhibition [12] was “inactive” and the inhibition [2] was “inactive”.

With `CN1CCc2nc3sc(C(=O)Nc4cccc(C#N)c4)c(N)c3cc2C1` the Activity (Mus musculus [6]) was “inactive”, the Drug metabolism [22] was “Metabolite_Detected” and the inhibition [12] was “inactive”. For the same compound, the inhibition (dHL-60) was “Active”, the inhibition (Neutrophil [3]) was “Active” and the Activity [1] was “inactive”. For the same compound, the inhibition (Neutrophil [4]) was “Active”, the inhibition (Neutrophil [5]) was “Active” and the Activity (Mus musculus [23]) was “Active”. For the same compound, the Activity (Mus musculus [7]) was “inactive”, the Drug metabolism [16] was “Metabolite_Detected” and the Drug metabolism [17] was “Metabolite_Notdetected”. For the same compound, the Activity (Mus musculus [24]) was “Active”, the Activity (Mus musculus [10]) was “inactive” and the Drug metabolism [20] was “Metabolite_Notdetected”. The Drug metabolism [21] was “Metabolite_Detected” and the Activity (TERT-RPE1 [25]) was “Toxic”.

With `COc1ccc(C(=O)Nc2ccc(-c3nnc(S)o3)cc2)cc1` the inhibition [12] was “inactive”, the inhibition (dHL-60) was “inactive” and the Activity [1] was “Active”. The inhibition (Neutrophil [4]) was “inactive”.

In the case of `O=c1c2cnc3cc(C(F)(F)F)ccc3c2sc2nncn12`, the inhibition [12] is reported as “inactive” and the inhibition [2] is reported as “inactive”.

In the case of `N#CC1=C(N)Oc2c(c(=O)sc3ccccc23)C1c1ccc(F)cc1` (centres undefined), the inhibition [2] is reported as “inactive”.
